Experimental data published in article PMC7104723 (Cell Research, 2020).
Several values for one entry are separate records, joined by “and”; a condition that tells them apart may be missing. Equal entries are not always repeated.

Experiments:
MERS-CoV S protein = MERS-CoV S protein (Middle East respiratory syndrome-related coronavirus, UniProt K9N5Q8); test: cell-based; format: cell-based
SARS-CoV-2 S protein = SARS-CoV-2 S protein (Severe acute respiratory syndrome coronavirus 2, UniProt P0DTC2); test: cell-based; format: cell-based
SARS-CoV PsV = conditions: 72 h
HCoV-OC43 S protein = HCoV-OC43 S protein (Human coronavirus OC43, UniProt P36334); test: cell-based; format: cell-based
SARS-CoV S protein = SARS-CoV S protein (Severe acute respiratory syndrome coronavirus, UniProt P59594); test: cell-based; format: cell-based
HCoV-OC43 PsV = conditions: 72 h
SARS-2-HR1 = SARS-2-HR1 (Severe acute respiratory syndrome coronavirus 2, UniProt P0DTC2); format: binding, SARS-CoV-2
HCoV-OC43 = format: in vivo, mice
MERS-CoV PsV = conditions: 72 h

MERS-CoV S protein, sequence (K9N5Q8 18-1353 limits assumed): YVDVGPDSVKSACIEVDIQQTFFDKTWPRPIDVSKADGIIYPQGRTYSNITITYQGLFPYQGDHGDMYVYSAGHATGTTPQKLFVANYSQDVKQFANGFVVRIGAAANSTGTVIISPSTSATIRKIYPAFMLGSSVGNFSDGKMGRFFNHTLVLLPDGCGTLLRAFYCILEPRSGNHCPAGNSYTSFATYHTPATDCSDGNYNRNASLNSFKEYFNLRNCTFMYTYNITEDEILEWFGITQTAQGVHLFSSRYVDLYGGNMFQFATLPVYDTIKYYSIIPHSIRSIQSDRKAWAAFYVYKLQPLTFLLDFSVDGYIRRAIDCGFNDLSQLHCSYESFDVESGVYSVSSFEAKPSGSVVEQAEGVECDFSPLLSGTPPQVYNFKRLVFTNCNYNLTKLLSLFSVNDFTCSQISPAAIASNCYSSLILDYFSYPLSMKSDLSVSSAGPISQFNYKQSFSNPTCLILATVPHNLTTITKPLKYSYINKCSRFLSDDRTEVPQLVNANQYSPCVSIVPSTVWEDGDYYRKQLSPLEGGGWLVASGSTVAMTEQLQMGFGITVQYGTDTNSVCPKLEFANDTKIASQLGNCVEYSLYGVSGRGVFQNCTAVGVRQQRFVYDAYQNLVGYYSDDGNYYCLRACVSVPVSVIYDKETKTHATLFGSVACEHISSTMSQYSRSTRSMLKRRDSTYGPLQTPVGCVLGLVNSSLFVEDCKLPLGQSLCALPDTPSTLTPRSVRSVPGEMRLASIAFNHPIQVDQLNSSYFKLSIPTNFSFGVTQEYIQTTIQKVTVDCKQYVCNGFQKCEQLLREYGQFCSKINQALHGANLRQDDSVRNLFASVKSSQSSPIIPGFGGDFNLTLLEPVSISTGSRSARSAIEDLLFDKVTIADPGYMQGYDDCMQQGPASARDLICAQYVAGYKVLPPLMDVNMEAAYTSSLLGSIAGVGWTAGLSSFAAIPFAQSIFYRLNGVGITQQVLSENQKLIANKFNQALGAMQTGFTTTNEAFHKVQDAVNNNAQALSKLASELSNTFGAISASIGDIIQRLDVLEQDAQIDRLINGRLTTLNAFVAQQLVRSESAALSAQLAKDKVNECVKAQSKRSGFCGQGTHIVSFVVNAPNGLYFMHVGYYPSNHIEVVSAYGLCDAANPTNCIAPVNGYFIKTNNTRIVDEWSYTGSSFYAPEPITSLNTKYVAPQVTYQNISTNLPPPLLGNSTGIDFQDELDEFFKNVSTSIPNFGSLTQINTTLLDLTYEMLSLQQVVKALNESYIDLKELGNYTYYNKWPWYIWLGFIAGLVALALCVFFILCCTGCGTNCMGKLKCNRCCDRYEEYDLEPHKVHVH
HCoV-OC43 S protein, sequence (P36334 14-1353 limits assumed): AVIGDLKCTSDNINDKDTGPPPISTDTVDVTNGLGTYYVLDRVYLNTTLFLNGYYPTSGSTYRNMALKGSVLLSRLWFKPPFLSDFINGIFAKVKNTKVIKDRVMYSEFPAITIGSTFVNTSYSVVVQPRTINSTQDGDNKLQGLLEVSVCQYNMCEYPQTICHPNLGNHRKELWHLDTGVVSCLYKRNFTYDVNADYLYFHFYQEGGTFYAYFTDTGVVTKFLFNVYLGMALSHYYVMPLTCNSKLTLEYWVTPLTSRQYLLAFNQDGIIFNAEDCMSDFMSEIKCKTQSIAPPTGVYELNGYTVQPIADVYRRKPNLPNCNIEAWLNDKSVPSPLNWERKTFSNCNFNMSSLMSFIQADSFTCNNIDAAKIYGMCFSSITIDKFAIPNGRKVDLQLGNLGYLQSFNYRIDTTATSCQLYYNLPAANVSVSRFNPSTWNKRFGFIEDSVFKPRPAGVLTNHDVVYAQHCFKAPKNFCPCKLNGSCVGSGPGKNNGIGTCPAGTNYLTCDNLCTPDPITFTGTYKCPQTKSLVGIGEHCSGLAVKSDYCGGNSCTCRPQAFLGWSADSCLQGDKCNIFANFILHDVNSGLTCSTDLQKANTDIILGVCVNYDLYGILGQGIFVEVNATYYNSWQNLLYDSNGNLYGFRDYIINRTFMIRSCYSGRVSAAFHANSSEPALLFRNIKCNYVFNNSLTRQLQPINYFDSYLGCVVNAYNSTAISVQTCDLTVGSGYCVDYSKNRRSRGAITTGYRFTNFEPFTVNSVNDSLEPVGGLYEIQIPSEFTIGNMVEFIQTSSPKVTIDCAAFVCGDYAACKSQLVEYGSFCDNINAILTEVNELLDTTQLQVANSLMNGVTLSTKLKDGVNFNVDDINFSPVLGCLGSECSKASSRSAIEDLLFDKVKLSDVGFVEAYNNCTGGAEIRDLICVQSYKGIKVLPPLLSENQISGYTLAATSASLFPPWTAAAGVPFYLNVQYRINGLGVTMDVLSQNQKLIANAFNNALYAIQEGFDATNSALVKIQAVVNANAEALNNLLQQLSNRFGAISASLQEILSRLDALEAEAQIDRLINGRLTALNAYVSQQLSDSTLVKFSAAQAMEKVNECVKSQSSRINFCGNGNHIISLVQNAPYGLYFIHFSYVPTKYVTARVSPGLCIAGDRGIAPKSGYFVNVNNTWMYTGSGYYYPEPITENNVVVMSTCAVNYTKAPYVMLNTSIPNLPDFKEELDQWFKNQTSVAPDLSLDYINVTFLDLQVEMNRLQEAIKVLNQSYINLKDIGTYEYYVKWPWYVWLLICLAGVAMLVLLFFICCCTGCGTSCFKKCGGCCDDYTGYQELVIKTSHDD

## CC[C@H](C)[C@H](NC(=O)[C@H](C)NC(=O)[C@H](CCC(=O)O)NC(=O)[C@H](CCC(=O)O)NC(=O)[C@H](CC(C)C)NC(=O)[C@H](CCCCN)NC(=O)[C@H](CCCCN)NC(=O)[C@H](CCSC)NC(=O)[C@H](CCC(=O)O)NC(=O)[C@H](Cc1ccc(O)cc1)NC(=O)[C@H](CCC(=O)O)NC(=O)[C@H](CC(C)C)NC(=O)[C@H](CC(=O)O)NC(=O)[C@H](CC(C)C)NC(=O)[C@H](Cc1ccccc1)NC(=O)[C@@H](NC(=O)[C@@H](NC(=O)[C@H](CC(N)=O)NC(=O)[C@@H](NC(=O)[C@H](CCC(N)=O)NC(=O)[C@H](CC(=O)O)NC(=O)[C@H](CC(C)C)NC(=O)[C@@H](N)CO)[C@@H](C)CC)C(C)C)[C@@H](C)O)C(=O)N[C@@H](CCCCN)C(=O)N[C@@H](CCCCN)C(=O)N[C@@H](CC(C)C)C(=O)N[C@@H](CCC(=O)O)C(=O)N[C@@H](CCC(=O)O)C(=O)N[C@@H](CO)C(=O)N[C@@H](Cc1ccc(O)cc1)C(=O)N[C@H](C(=O)N[C@@H](CC(=O)O)C(=O)N[C@@H](CC(C)C)C(=O)N[C@@H](CCCCN)C(=O)N[C@@H](CCC(=O)O)C(=O)N[C@@H](CC(C)C)C(=O)NCC(=O)N[C@@H](CO)C(=O)NCC(=O)N[C@@H](CO)C(=O)NCC(=O)NCCOCCOCCOCCOCCC(=O)N[C@@H](CSCC(=O)O[C@H]1CC[C@@]2(C)C(=CC[C@H]3[C@@H]4CC[C@H]([C@H](C)CCCC(C)C)[C@@]4(C)CC[C@@H]32)C1)C(N)=O)[C@@H](C)CC [EK1C4]
Live HCoV-229E
  Fold more potent than EK1, live HCoV-229E infection: 42 fold
Live HCoV-229E; 1 h
  IC50: 102 nM
MERS-CoV S protein
  Fold more potent than EK1, MERS-S-mediated cell–cell fusion: 95 fold
SARS-CoV-2 S protein
  Fold more potent than EK1C1, SARS-CoV-2 S-mediated cell–cell fusion: 43 fold
Live HCoV-NL63
  Fold more potent than EK1, live HCoV-NL63 infection: 19 fold
Live HCoV-NL63; 1 h
  IC50: 188 nM
Rs3367 PsV
  Fold more potent than EK1, Rs3367 PsV infection: 89 fold
Rs3367 PsV; 72 h
  IC50: 66.9 nM
SARS-CoV PsV
  IC50: 11.7 nM
SARS-CoV-2 PsV
  Fold more potent than EK1, SARS-CoV-2 PsV infection: ~150 fold and 149 fold
SARS-CoV-2 PsV; PsV, 72 h
  IC50: 15.8 nM
HCoV-OC43 S protein
  Fold more potent than EK1, OC43-S-mediated cell–cell fusion: 101 fold
Live SARS-CoV-2
  Fold more active than EK1, live SARS-CoV-2 infection: 67 fold
Live SARS-CoV-2; live, 72 h
  IC50: 36.5 nM
SARS-CoV S protein
  Fold more active than EK1, SARS-CoV S-mediated cell–cell fusion: about 94 fold
HCoV-OC43 PsV
  IC50: 37.7 nM
HCoV-NL63 PsV
  Fold more active than EK1, HCoV-NL63 PsV infection: ~99 fold
HCoV-NL63 PsV; 72 h
  IC50: 76.6 nM
SARS-2-HR1
  Stability and Tm of complex with SARS-2-HR1 compared with EK1 complex: higher stability and increased Tm values
Live MERS-CoV
  Fold more potent than EK1, live MERS-CoV infection: 190 fold
Live MERS-CoV; 72 h
  IC50: 4.2 nM
WIV1 PsV
  Fold more potent than EK1, WIV1 PsV infection: 175 fold
WIV1 PsV; 72 h
  IC50: 30.8 nM
HCoV-OC43; 0.5 mg/kg intranasal 0.5 h after challenge, day 5, 5 mice, limit of detection lg2.0 TCID50/g
  Viral titer in brain, Post-0.5 group: not detected
HCoV-OC43; 0.5 mg/kg intranasal 0.5 h after challenge, day 5, one mouse
  Brain histopathology, Post-0.5 group: no apparent histopathological changes
HCoV-OC43; 0.5 mg/kg intranasal 0.5 h before challenge, day 5, one mouse
  Brain histopathology, Pre-0.5 group: no apparent histopathological changes
HCoV-OC43; 0.5 mg/kg intranasal 0.5 h before challenge, day 5 after infection, 5 mice, limit of detection lg2.0 TCID50/g
  Viral titer in brain, Pre-0.5 group: not detected
HCoV-OC43; 0.5 mg/kg intranasal 2 h after challenge, day 5, 5 mice, limit of detection lg2.0 TCID50/g
  Mice with high viral titer detected in brain, Post-2 group: 4 out of 5 mice
HCoV-OC43; 0.5 mg/kg intranasal 2 h before challenge, day 5, 5 mice, limit of detection lg2.0 TCID50/g
  Viral titer in brain, Pre-2 group: not detected
HCoV-OC43; 0.5 mg/kg intranasal 2 h before challenge, day 5, one mouse
  Brain histopathology, Pre-2 group: no apparent histopathological changes
HCoV-OC43; 0.5 mg/kg intranasal 4 h before challenge, day 5, 5 mice, limit of detection lg2.0 TCID50/g
  Viral titer in brain, Pre-4 group: not detected
HCoV-OC43; 0.5 mg/kg intranasal 4 h before challenge, day 5, one mouse
  Brain histopathology, Pre-4 group: no apparent histopathological changes
HCoV-OC43; 0.5 mg/kg intranasal 12 h before challenge, day 5, 5 mice, limit of detection lg2.0 TCID50/g
  Viral titer in brain, Pre-12 group: only moderate level of viral titer was detected in brain tissue in one of the 5 mice
HCoV-OC43; 0.5 mg/kg intranasal 12 h before challenge, day 5, one mouse
  Brain histopathology, Pre-12 group: no apparent histopathological changes
HCoV-OC43; 0.5 mg/kg intranasal 24 h before challenge, day 5, 5 mice, limit of detection lg2.0 TCID50/g
  Mice with high viral titer detected in brain, Pre-24 group: all 5 mice
HCoV-OC43; newborn mice, intranasal 0.5 mg/kg 0.5 h after HCoV-OC43 infection
  Survival rate, Post-0.5 group: 100%
HCoV-OC43; newborn mice, intranasal 0.5 mg/kg 2 h after HCoV-OC43 infection
  Survival rate, Post-2 group: 16.7%
HCoV-OC43; newborn mice, single intranasal dose 0.5 mg/kg 0.5 h before HCoV-OC43 challenge (100 TCID50), 14 days
  Final survival rate, Pre-0.5 group: 100%
HCoV-OC43; newborn mice, single intranasal dose 0.5 mg/kg 2 h before HCoV-OC43 challenge (100 TCID50), 14 days
  Final survival rate, Pre-2 group: 100%
HCoV-OC43; newborn mice, single intranasal dose 0.5 mg/kg 4 h before HCoV-OC43 challenge (100 TCID50), 14 days
  Final survival rate, Pre-4 group: 100%
HCoV-OC43; newborn mice, single intranasal dose 0.5 mg/kg 12 h before HCoV-OC43 challenge (100 TCID50), 14 days
  Final survival rate, Pre-12 group: 83%
HCoV-OC43; newborn mice, single intranasal dose 0.5 mg/kg 24 h before HCoV-OC43 challenge (100 TCID50), 14 days
  Final survival rate, Pre-24 group: 0%
Live HCoV-OC43
  Fold more potent than EK1, live HCoV-OC43 infection: 62 fold
Live HCoV-OC43; 1 h
  IC50: 24.8 nM
MERS-CoV PsV
  IC50: 11.1 nM
HCoV-229E PsV
  Fold more active than EK1, HCoV-229E PsV infection: about 319 fold
HCoV-229E PsV; 72 h
  IC50: 12.4 nM
